{
  "source": "paper PMC8670397",
  "about": "(Bioorganic & medicinal chemistry, 2020)",
  "key": {"[1]": {"conditions": "cited from earlier work"}, "[2]": {"system": "D2R", "conditions": "similar to aripiprazole; cited from earlier work"}, "[3]": {"target": "5-HT1A receptor (Homo sapiens, UniProt P08908)", "sequence (P08908 whole entry)": "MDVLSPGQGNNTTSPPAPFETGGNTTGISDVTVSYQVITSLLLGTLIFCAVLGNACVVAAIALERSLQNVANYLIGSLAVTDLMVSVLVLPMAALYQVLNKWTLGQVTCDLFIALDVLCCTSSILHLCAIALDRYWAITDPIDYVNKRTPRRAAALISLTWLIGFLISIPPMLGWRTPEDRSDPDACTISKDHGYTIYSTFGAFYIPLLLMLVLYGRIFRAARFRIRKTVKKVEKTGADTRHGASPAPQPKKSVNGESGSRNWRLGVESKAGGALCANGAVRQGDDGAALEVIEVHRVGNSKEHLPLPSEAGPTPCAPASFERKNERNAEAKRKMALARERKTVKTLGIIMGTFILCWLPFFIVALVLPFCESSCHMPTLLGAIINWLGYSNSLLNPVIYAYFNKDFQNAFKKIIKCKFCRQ"}, "[4]": {"target": "5-HT7 receptor (Homo sapiens, UniProt P34969)", "sequence (P34969 whole entry)": "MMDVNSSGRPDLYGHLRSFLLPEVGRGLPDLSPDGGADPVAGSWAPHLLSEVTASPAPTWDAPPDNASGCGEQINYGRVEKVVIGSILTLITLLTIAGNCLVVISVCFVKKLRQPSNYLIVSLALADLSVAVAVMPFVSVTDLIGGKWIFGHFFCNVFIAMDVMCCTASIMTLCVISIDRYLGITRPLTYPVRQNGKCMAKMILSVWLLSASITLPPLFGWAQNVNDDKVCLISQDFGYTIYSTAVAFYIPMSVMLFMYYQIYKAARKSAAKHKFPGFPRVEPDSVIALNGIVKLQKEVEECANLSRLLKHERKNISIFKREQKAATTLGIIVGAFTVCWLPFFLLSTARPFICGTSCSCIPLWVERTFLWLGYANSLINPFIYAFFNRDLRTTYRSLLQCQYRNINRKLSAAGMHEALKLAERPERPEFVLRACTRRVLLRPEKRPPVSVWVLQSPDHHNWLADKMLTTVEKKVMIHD"}, "[5]": {"target": "D1 receptor (Homo sapiens, UniProt P21728)", "sequence (P21728 whole entry)": "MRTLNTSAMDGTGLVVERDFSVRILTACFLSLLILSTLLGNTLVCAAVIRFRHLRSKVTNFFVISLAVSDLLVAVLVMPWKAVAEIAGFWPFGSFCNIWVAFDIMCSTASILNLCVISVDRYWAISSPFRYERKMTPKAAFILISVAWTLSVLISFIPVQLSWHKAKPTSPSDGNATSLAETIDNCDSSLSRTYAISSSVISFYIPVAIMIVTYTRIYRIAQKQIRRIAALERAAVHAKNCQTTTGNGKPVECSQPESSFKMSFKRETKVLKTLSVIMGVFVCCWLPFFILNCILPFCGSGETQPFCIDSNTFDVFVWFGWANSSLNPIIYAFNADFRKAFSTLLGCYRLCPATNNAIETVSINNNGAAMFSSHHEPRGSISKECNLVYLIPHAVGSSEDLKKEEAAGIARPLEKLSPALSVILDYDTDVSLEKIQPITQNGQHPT", "assay": "biochemical"}},
  "note": "pKi: −log10 of the molar value.",
  "data": [
    {"compound": "Fc1ccc(CCCCN2CCN(c3ccccn3)CC2)cc1", "note": "[Compound 5, 1-(4-(4-fluorophenyl)butyl)-4-(pyridin-2-yl)piperazine]", "values": [
      {"measurement": "blood brain barrier (BBB) permeability", "setting": "[1]", "result": "high"},
      {"measurement": "signaling at the D2R", "setting": "[2]", "result": "activates both G-protein and β-arrestin signaling"}
    ]},
    {"compound": "O=C1c2ccc(F)cc2CC1CCN1CCCN(c2ccccn2)CC1", "note": "(stereo not drawn) [Compound 14]", "values": [
      {"measurement": "mean pKi ± SEM 5-HT1A", "setting": "[3]", "result": "6.1 ± 0.1"}
    ]},
    {"compound": "Fc1ccc(CCCCN2CCN(c3cccnc3)CC2)cc1.O=C(O)C(=O)O", "note": "[Compound 21, 1-(4-(4-fluorophenyl)butyl)-4-(pyridin-3-yl)piperazine oxalate]", "values": [
      {"measurement": "mean pKi ± SEM 5-HT7", "setting": "[4]", "result": "6.63 ± 0.09"},
      {"measurement": "pKi", "setting": "[5]", "result": "< 5.70"}
    ]},
    {"compound": "Cc1ccc(N2CCN(CCCCc3ccc(F)cc3)CC2)nc1", "note": "[Compound 9, 1-(4-(4-fluorophenyl)butyl)-4-(5-methylpyridin-2-yl)piperazine]", "values": [
      {"measurement": "mean pKi ± SEM 5-HT7", "setting": "[4]", "result": "7.2 ± 0.1"}
    ]}
  ]
}
